Results reported in ChEMBL document CHEMBL1129969 (J Med Chem, 1997).

Experiments:
Rattus norvegicus [1] = species on record: Rattus norvegicus; test: Biological activity was determined by uterotonic in vitro test in magnesium-free solution; format: functional
Rattus norvegicus [2] = species on record: Rattus norvegicus; test: Biological activity was determined by pressor test using pithed rat preparations; format: functional
Rattus norvegicus [3] = test: Biological activity was determined by uterotonic in vivo test using urethane-anesthetized rats; format: functional
Rattus norvegicus [4] = test: Biological activity was determined by uterotonic in vivo test using urethane-anesthetized rats (protracted action); format: functional
Oxytocin receptor = target: T1, Oxytocin receptor (Rattus norvegicus, UniProt P70536); test: Binding affinity against Oxytocin receptor was determined in rat uterine membrane using radioligand [3H]oxytocin; format: cell membranes
T1 sequence (P70536 whole entry): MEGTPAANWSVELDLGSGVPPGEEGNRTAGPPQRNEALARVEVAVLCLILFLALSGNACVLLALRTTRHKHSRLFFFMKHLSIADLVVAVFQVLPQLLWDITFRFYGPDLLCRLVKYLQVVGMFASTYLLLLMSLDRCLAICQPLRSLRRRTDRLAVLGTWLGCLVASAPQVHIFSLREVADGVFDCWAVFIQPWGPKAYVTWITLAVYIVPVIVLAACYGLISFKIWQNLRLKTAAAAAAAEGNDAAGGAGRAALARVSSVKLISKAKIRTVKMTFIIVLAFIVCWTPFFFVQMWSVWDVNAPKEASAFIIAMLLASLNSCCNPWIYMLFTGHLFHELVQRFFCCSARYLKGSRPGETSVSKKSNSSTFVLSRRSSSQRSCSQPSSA

Rattus norvegicus [5] = species on record: Rattus norvegicus; test: Biological activity was determined by pressor test using pithed rat preparations (protracted action); format: functional

| SMILES | Activity (Rattus norvegicus [1]) [IU mg-1] | Activity (Rattus norvegicus [2]) [IU mg-1] | Activity (Rattus norvegicus [3]) [IU mg-1] | Activity (Rattus norvegicus [4]) [IU mg-1] | Ki (Oxytocin receptor) [nM] | Activity (Rattus norvegicus [5]) [IU mg-1] |
| --- | --- | --- | --- | --- | --- | --- |
| CC[C@H](C)[C@@H]1NC(=O)[C@H](Cc2ccc(O)cc2)NC(=O)[C@@H](N)CSSC[C@@H](C(=O)N2CCC[C@H]2C(=O)N[C@@H](CC(C)C)C(=O)NCC(N)=O)NC(=O)[C@H](CC(N)=O)NC(=O)[C@H](CCC(N)=O)NC1=O [OXYTOCIN] | 510 | 5 | 450 | – | – | – |
| CC[C@H](C)[C@@H]1NC(=O)[C@H](Cc2ccc(O)cc2)NC(=O)CCSSC[C@@H](C(=O)N2CCC[C@H]2C(=O)N[C@@H](CC(C)C)C(=O)NCC(N)=O)NC(=O)[C@H](CC(N)=O)NC(=O)[C@H](CCC(N)=O)NC1=O [DEMOXYTOCIN] | 576 | 5 | – | 541 | 0.9 | – |
| CC[C@H](C)[C@@H]1NC(=O)[C@H](Cc2ccc(O)cc2)NC(=O)[C@@H](N)CSSSC[C@@H](C(=O)N2CCC[C@H]2C(=O)N[C@@H](CC(C)C)C(=O)NCC(N)=O)NC(=O)[C@H](CC(N)=O)NC(=O)[C@H](CCC(N)=O)NC1=O [OXYTOCIN TRISULFIDE] | – | – | – | – | 6 | – |
| CC[C@H](C)[C@@H]1NC(=O)[C@H](Cc2ccc(O)cc2)NC(=O)CCSSSC[C@H](C(=O)N2CCC[C@H]2C(=O)N[C@@H](CC(C)C)C(=O)NCC(N)=O)NC(=O)[C@H](CC(N)=O)NC(=O)[C@H](CCC(N)=O)NC1=O [DEAMINOOXYTOCIN TRISULFIDE] | 32.7 | – | – | 135 | 3 | 0.6 |
